Test results as given in US20070191465A1, “Channel blocking compounds” (priority 2003, published 2007).
Where “and” joins values, the source holds several entries; their conditions need not be identical. Identical values can stand only once. Entries after “also recorded” stand apart in the source; their conditions may differ.

Tests used:
mice = details: known from literature (Munday-Finch); cited from earlier work
BK channel [1] = target: T1, BK channel (Homo sapiens, UniProt Q12791); details: McMillan et al., 2003; cited from earlier work
[2] = target: T2, hSlo α subunit large conductance calcium-activated potassium (BK) channels (Homo sapiens, UniProt Q12791); assay: Inside-out patch clamp of hSlo α subunit BK channels expressed in HEK293 cells; type: cell-based; details: for BK channel current as fraction of the control response: α subunit
T2 construct: expressed in transfected cells; host or cells: HEK293 (transient; co-transfected with CD4 as a marker)
Protocol: In this experiment, hSlo α subunit large conductance calcium-activated potassium (BK) channels with an N-terminal c-myc tag in the mammalian vector pcDNA (Meera et al, 1997) were transiently expressed in human embryonic kidney cells (cell type HEK293).
Human embryonic kidney cells were grown in a mix of DMEM (Dulbecco's Modified Eagle Medium, GibcoBRL Cat#12100-038) and 2.5 mM HEPES (N-[2-Hydroxyethyl]piperazine-N′-[2-ethanesulfonic acid]), supplemented with minimal essential amino acids and 10% fetal bovine serum.
Cells were subsequently plated into 24-well plates, grown to 95% confluency and transfected 24 hours later with 10 μg of hSlo and 2 μg CD4 (pcDNA) and 2 µl Lipofectamine 2000™.
Cells were plated onto cover slips 24 hours later. CD4 antibody-labelled beads were used to identify transfected cells. Macroscopic currents were recorded from excised inside-out patches at 3 days post-transfection.
A stock of 100 μM Lolitrem B was made up in dimethyl sulfoxide (DMSO). This was diluted to the appropriate concentration in electrophysiological solutions.
The bath solution that was applied to the internal side of the cell membrane of the inside-out membrane patch was (mM): 140 KMeSO3, 2 KCl, 20 HEPES (N-[2-Hydroxyethyl]piperazine-N′-[2-ethanesulfonic acid]), 5 HEDTA (N-([2-hydroxyethyl)ethylene-diaminetriacetic acid) and 3.65 CaCl2 to give 10 μM free calcium with a pH of 7.2.
The pipette solution applied to the extemal side of the cell membrane of the inside-out membrane patch was (mM): 140 KMeSO3, 2 KCl, 20 HEPES, and 2 MgCl2, with a pH of 7.2.
Macroscopic currents were recorded in an inside-out patch-clamp configuration using an amplifier, interface and data collection software. Data were filtered at 5 kHz and sampled at 20 μs intervals. Fast capacitance compensation was used to cancel the fast transient. Leak subtraction was used although the background potassium current was small.
Channels were activated by voltage pulses to +150 mV every minute in the presence of 10 μM free calcium. Control current responses were recorded over 5 minutes. Only patches that remained stable over this time were used in experiments.
Each concentration of lolitrem B was applied for 5 minutes or until the current response had stabilised and fractional block calculated as the decrease in current as a fraction of the control. The current amplitude was the mean current over the last half of the voltage pulse to +150 mV.

[3] = target: T3, α+β4 BK channels (hSlo α subunit with human β4 subunit) (Homo sapiens, UniProt Q12791); assay: Patch clamp of α+β4 BK channels expressed in human embryonic kidney cells; type: cell-based; details: for h = Hill coefficient: α + β4
T3 construct: expressed in transfected cells; host or cells: HEK293 (transient)
Protocol: (§1) Current amplitude (I′) 5 minutes after addition of increasing lolitriol concentrations, shown as a fraction of the control response. Lolitriol was applied to α+β1 channels (solid circles) and to α+β4 channels (open circles). 31-epilolitrem B was applied to α+β1 channels (solid triangles) and to α+β4 channels (open triangles). Shaded triangles are data points from a single cell to which the curve was fitted. Lolitrem B was applied to hSlo channels (solid squares) a previous study and is shown for comparison. The current response was averaged over the last half of a voltage pulse to +150 mV for 50 ms, with 10 μM internal free calcium. The vertical bars show ±1 S.E.M. in 3 or more cells. The curve is a fit of a Hill-type equation to the data.
(§2) We used BK channels containing beta subunits that are expressed in smooth muscle ([…]) and brain (β4). BK channels with subunit combinations α+β1 or α+β4 were expressed in human embryonic kidney cells and their function assayed by patch clamping.
(§3) hSlo α subunit large conductance calcium-activated potassium channels in pcDNA3 (Meera et al., 1997) together with the human β4 subunit in pEGFP-N1 were transiently expressed in human embryonic kidney cells (HEK293). HEK cells were grown in a mix of DMEM (Dulbecco's Modified Eagle Medium) and 2.5 mM HEPES (N-[2-Hydroxyethyl]-piperazine-N′-[2-ethanesulfonic acid]), supplemented with minimal essential amino acids and 10% fetal bovine serum. Cells were subsequently plated onto 24-well plates, grown to 95% confluency and transfected 24 hours later with 10 μg of hSlo, 8 μg of β4 and 2 μl Lipofectamine 2000™. Cells were plated onto cover slips 24 hours later. Transfected cells expressed green fluorescent protein and were identified under UV light by their fluorescence.

α+β1 BK channels = target: T4, α+β1 BK channels (Homo sapiens, UniProt Q12791); assay: Patch clamp of α+β1 BK channels expressed in human embryonic kidney cells; type: cell-based; details: for IC50: IC50, α + β1, +150 mV, 10 μM internal free calcium; for h = Hill coefficient: α + β1
T4 construct: expressed in transfected cells; host or cells: human embryonic kidney cells (HEK293)
Protocol: as §1, §2, §3

BK channel [4] = target: T1, BK channel; assay: Degree of antagonist inhibition of BK channels, subunit composition not stated; type: cell-based

T1 sequence (Q12791 whole entry): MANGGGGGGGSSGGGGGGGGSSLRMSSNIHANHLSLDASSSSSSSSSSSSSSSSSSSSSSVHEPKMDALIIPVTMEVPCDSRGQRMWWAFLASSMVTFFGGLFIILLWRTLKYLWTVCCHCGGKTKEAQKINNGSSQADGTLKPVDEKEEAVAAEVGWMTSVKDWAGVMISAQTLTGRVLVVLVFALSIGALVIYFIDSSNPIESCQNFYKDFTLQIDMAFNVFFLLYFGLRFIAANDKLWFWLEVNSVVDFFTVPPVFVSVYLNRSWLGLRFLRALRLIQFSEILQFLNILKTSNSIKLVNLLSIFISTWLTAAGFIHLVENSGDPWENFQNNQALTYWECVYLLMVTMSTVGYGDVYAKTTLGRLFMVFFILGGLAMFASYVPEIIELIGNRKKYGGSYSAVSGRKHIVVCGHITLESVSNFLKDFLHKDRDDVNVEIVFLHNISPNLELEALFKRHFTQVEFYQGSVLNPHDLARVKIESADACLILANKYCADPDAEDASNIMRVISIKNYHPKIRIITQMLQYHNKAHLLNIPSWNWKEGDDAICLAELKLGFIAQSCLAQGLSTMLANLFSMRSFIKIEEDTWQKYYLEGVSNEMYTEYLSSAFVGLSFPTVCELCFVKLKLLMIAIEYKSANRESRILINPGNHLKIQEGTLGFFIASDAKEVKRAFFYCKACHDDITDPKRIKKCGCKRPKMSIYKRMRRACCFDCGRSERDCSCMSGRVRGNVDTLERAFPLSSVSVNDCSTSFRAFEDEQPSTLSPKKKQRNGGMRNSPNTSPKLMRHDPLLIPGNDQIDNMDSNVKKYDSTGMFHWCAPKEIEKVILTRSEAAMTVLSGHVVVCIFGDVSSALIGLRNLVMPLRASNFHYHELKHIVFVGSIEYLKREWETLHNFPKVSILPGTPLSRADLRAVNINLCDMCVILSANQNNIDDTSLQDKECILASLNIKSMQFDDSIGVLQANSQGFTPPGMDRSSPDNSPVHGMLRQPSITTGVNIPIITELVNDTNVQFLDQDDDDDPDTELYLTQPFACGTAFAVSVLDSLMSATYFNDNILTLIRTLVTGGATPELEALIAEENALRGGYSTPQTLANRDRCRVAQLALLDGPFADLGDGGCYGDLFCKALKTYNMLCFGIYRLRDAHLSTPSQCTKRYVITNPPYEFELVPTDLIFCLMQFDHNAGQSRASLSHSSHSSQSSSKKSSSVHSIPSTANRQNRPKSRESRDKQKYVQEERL
T2 sequence (Q12791 whole entry): as above
T3 sequence (Q12791 whole entry): as above
T3 sequence (Q86W47 whole entry partner): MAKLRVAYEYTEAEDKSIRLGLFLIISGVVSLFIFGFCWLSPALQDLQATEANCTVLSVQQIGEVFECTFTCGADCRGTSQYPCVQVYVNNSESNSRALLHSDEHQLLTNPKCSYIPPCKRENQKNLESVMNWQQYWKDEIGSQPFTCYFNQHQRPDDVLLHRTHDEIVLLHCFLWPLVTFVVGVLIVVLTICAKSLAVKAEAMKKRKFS
T4 sequence (Q12791 whole entry): as the sequence (Q12791 whole entry) above
T4 sequence (Q16558 whole entry partner): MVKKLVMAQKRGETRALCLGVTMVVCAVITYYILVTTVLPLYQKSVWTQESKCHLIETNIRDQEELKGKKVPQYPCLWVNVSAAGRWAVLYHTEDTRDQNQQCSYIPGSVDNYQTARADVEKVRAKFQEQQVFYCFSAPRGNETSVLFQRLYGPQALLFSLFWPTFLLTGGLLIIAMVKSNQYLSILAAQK

Compound	tremorgenicity (mice)	BK channel current as fraction of the control response ([2]; 100 nM)	h = Hill coefficient [3]	IC50 (α+β1 BK channels)	h = Hill coefficient (α+β1 BK channels)	also measured
CC1(C)OC(C)(C)C2C(=O)c3ccc4[nH]c5c(c4c3CC21)C[C@@H]1CC[C@@]2(O)C3=CC(=O)[C@@H](C(C)(C)O)OC3CC[C@]2(C)[C@@]51C (some centres unmarked) [lolilline]	non-tremorgenic					
desoxypaxilline [reference compound]	non-tremorgenic					concentration needed for the same degree of BK inhibition as paxilline (BK channel [1]): 24 times
CC(C)=CC1OC2C(OC3CCC4(C)C5(C)c6[nH]c7ccc8c(c7c6CC5CCC4(O)C34OC24)CC2C(C8=O)C(C)(C)OC2(C)C)C(C)(C)O1 (centres unmarked) [lolitrem B]	tremorgenic					inhibition of the BK channel current (in words) ([2]; 2 nM): partial inhibition; reversal of current block by wash-out ([2]; 10 nM or greater, wash-out with control solution for 30 minutes at 4 ml/min): not able to be reversed; also recorded: could not be reversed; inhibition of the BK channel current (in words) ([2]; 20 nM applied to the perfusion bath): complete inhibition; IC50 ([2]; IC50 (concentration of half maximal inhibition), α alone, voltage pulse to +150 mV, 10 μM free calcium, Hill equation fit, 11 cells): 3.7 nM and ~3.7 nM; degree of antagonist inhibition ([2]; approximately 20 nM): approximately 97%; h = Hill coefficient ([2]; α alone): 1.7
CC(C)=CCOC(C)(C)[C@H]1O[C@H]2CC[C@@]3(C)[C@@](O)(CC[C@H]4Cc5c([nH]c6ccc7c(c56)C[C@@H]5[C@@H](C7=O)C(C)(C)OC5(C)C)[C@@]43C)[C@]23O[C@@H]3[C@@H]1O [lolitrem E]	partial-tremorgenic	0.01				degree of antagonist inhibition ([2]; approximately 100 nM): approximately 100%
CC(C)=CC1OC2C(OC3CCC4(C)C5(C)c6[nH]c7ccc8c(c7c6CC5CCC4(O)C34OC24)CC2C(C8=O)C(C)(C)OC2(C)C)C(C)(C)O1 (centres unmarked) [31-epilolitrem B]	non-tremorgenic	0.06±0.02	2.2	~58 nM and 58 nM	2.7	current response as fraction of control after wash-out ([2]; after 100 nM, wash-out with control solution for 26 minutes, one experiment): 0.59; degree of antagonist inhibition (BK channel [4]; approximately 200 nM): approximately 100%
CC(C)(O)C1OC2CCC3(C)C4(C)c5[nH]c6ccc7c(c6c5CC4CCC3(O)C23OC3C1O)CC1C(C7=O)C(C)(C)OC1(C)C (centres unmarked) [lolitriol]	non-tremorgenic	0.29	2.7	~195 nM and 195 nM	2.3	concentration required to inhibit α+β4 channels compared with α+β1 channels ([3]; α+β4 versus α+β1): Twice; BK channel current as fraction of the control response ([2]; 200 nM): 0.25; current response as fraction of control after wash-out ([2]; wash-out with control solution for 30 minutes at 4 ml/min): 0.86; degree of antagonist inhibition (BK channel [4]; approximately 1000 nM): approximately 100%
